Results from PMC4849433, “Phloem Proteomics Reveals New Lipid-Binding Proteins with a Putative Role in Lipid-Mediated Signaling” (Frontiers in Plant Science, 2016).

What was measured:
Experiment in all cases: liposome co-sedimentation with anti-His Western blot; protein-lipid overlay
Format in all cases: binding
[1] = biological target: T1, PLAFP (phloem lipid-associated family protein) (Arabidopsis thaliana, UniProt O65660); conditions: pH 7.0, 0.1 M NaCl, 30 °C, 30 min; 1 μg protein; PtdOH mixed into PtdCho liposomes; figure modified from Benning et al. 2012 (same laboratory)
T1 construct: gene PLAT1; 23-residue predicted signal peptide removed; pET15b His tag; E. coli OrigamiB(DE3)pLysS; HisLink purified
T1 sequence (O65660 24-181): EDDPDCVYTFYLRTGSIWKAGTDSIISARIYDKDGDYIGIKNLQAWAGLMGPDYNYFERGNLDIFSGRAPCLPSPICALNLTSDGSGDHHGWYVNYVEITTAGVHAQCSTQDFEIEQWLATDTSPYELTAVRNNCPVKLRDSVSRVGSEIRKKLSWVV

GDSL-lipase = biological target: T2, GDSL-lipase (Arabidopsis thaliana, UniProt Q9C7N5); conditions: pH 7.0, 0.1 M NaCl, 30 °C, 30 min; 10 μg protein; lipid in liposomes
T2 construct: gene At1g29660; 26-residue predicted signal peptide removed; pET15b His tag; E. coli BL21(DE3)pLysS; Ni-NTA purified
T2 sequence (Q9C7N5 27-364): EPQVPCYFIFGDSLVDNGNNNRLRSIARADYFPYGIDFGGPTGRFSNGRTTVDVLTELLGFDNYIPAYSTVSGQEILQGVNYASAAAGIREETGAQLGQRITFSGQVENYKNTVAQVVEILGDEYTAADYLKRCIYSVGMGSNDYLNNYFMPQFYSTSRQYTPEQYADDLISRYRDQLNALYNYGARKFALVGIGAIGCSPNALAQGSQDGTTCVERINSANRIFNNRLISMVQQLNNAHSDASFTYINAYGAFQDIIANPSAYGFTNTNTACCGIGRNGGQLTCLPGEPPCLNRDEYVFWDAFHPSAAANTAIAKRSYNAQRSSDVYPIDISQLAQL

PIG-P-like protein = biological target: T3, PIG-P-like protein (Arabidopsis thaliana, UniProt A0A1P8B1E2); conditions: pH 7.0, 0.1 M NaCl, 30 °C, 30 min; 1 μg protein; lipid in liposomes
T3 construct: gene TRM18; coding region, no signal peptide; pET15b His tag; E. coli BL21(DE3)pLysS; Ni-NTA purified; 50 kDa
T3 sequence (A0A1P8B1E2 1-464): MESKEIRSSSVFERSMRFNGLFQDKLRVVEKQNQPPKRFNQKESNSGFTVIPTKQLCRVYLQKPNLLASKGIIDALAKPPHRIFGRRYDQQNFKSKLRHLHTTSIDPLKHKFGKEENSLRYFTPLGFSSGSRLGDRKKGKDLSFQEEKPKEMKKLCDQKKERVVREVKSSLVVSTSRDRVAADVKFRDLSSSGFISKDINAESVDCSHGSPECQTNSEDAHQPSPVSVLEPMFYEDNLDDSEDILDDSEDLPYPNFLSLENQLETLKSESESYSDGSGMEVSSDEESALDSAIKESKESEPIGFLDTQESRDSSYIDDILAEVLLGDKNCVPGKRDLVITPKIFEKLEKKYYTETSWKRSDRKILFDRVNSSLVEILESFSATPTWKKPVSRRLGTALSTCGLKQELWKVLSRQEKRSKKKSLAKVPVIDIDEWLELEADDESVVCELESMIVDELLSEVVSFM

With CCCCCCCC/C=C\CCCCCCCC(=O)OC[C@H](COP(=O)(O)O)OC(=O)CCCCCCC/C=C\CCCCCCCC [PtdOH] the “liposome co-sedimentation with anti-His Western blot; protein-lipid overlay” value (“liposome co-sedimentation” for short) [1] was “when PtdOH was included in the liposome, PLAFP bound”, the “liposome co-sedimentation” value (GDSL-lipase) was “the GDSL-lipase does associate with PtdOH-containing liposomes (Figure 1G)” and the “liposome co-sedimentation” value (PIG-P-like protein) was “PIG-P binds to liposomes containing PtdOH or PtdSer”.
